Columns and labels:
Assay in all cases: MIC by microbroth dilution
Strept. pneumoniae L44 = type: cell-based; details: 0.01% (w/v) BSA, 10^4 CFU/ml, read after 18-24 h, 37° C., Todd Hewitt broth
Method: BSA is added to the diluent to avoid possible adherence of the compounds of the invention to the plastic surface of the microtiter wells, as disclosed also by B. Goldstein et al., Antimicrobial Agents and Chemotherapy, 37 (1993), 741-745. Inocula were 10^4 CFU/ml, except for Propionibacterium acnes and Bacteroides fragilis (10^5 CFU/ml). MICs were read after 18-24 h, except for Haemophilus influenzae, P. acnes, B. fragilis (48 h). All microorganisms were incubated at 37° C.; H. influenzae in a 5% CO2 atmosphere, anaerobes in a N2 --CO2 --H2 (80:10:10) mixture; other organisms in air. The growth media are: Oxoid Iso-Sensitest broth for staphylococci and Enterococcus faecalis); Difco Todd Hewitt broth for streptococci; Difco brain heart infusion broth+1% Difco Supplement C for H. influenzae; Difco Wilkins-Chalgren broth for anaerobes.

[1] = test system: Streptococcus pyogenes L49; type: cell-based; details: 0.01% (w/v) BSA, 10^4 CFU/ml, read after 18-24 h, 37° C., Todd Hewitt broth
Method: (§1) The minimal inhibitory concentration (MIC) has been determined by microbroth dilution methodology, in the presence of 0.01% (w/v) of bovine serum albumin (BSA). BSA is added to the diluent to avoid possible adherence of the compounds of the invention to the plastic surface of the microtiter wells, as disclosed also by B. Goldstein et al., Antimicrobial Agents and Chemotherapy, 37 (1993), 741-745.
(§2) Inocula were 10^4 CFU/ml, except for Propionibacterium acnes and Bacteroides fragilis (10^5 CFU/ml).
(§3) MICs were read after 18-24 h, except for Haemophilus influenzae, P. acnes, B. fragilis (48 h).
(§4) All microorganisms were incubated at 37° C.; H. influenzae in a 5% CO2 atmosphere, anaerobes in a N2 --CO2 --H2 (80:10:10) mixture; other organisms in air.
(§5) The growth media are: Oxoid Iso-Sensitest broth for staphylococci and Enterococcus faecalis); Difco Todd Hewitt broth for streptococci; Difco brain heart infusion broth+1% Difco Supplement C for H. influenzae; Difco Wilkins-Chalgren broth for anaerobes.

Strept. agalactiae L310 = type: cell-based; details: 0.01% (w/v) BSA, 10^4 CFU/ml, read after 18-24 h, 37° C., Todd Hewitt broth
Method: as §1, §2, §3, §4, §5

Strept. sanguis L1721 = type: cell-based; details: 0.01% (w/v) BSA, 10^4 CFU/ml, read after 18-24 h, 37° C., Todd Hewitt broth
Method: as §1, §2, §3, §4, §5

[2] = test system: Staphylococcus aureus L165; type: cell-based; details: 0.01% (w/v) BSA, 10^4 CFU/ml, read after 18-24 h, 37° C., Iso-Sensitest broth
Method: as §1, §2, §3, §4, §5

[3] = test system: Haemoph. influenzae ATCC 19418 L970; type: cell-based, Haemophilus influenzae; details: 0.01% (w/v) BSA, 10^4 CFU/ml, read after 48 h, 37° C., 5% CO2, brain heart infusion broth+1% Supplement C
Method: as §1, §2, §3, §4, §5

MIC of the compounds, Strept. pneumoniae L44 (Strept. pneumoniae L44) | MIC of the compounds, Streptococcus pyogenes L49 [1] | MIC of the compounds, Strept. agalactiae L310 (Strept. agalactiae L310) | MIC of the compounds, Strept. sanguis L1721 (Strept. sanguis L1721) | MIC of the compounds, Staphylococcus aureus L165 [2] | MIC of the compounds, Haemoph. influenzae ATCC 19418 L970 [3] | Structure (SMILES)
0.5 µg/mL | 4 µg/mL | 8 µg/mL | 1 µg/mL | 0.13 µg/mL |  | CNC(=O)CC1NC(=O)c2csc(n2)-c2ccc(-c3nc(C4=NC(C(=O)N5CCCC5C(=O)N(C)CC(=O)N(C)CCN(C)C)CO4)cs3)nc2-c2csc(n2)-c2csc(n2)C(C(O)c2ccccc2)NC(=O)CNC(=O)c2nc(sc2COC)C(C(C)C)NC(=O)c2nc1sc2C (mixture of isomers) [Compound 13]
0.25 µg/mL | 4 µg/mL | 8 µg/mL | 0.5 µg/mL | 0.06 µg/mL |  | CCN(CCN(C)C)C(=O)C1CCCN1C(=O)C1COC(c2csc(-c3ccc4c(n3)-c3csc(n3)-c3csc(n3)C(C(O)c3ccccc3)NC(=O)CNC(=O)c3nc(sc3COC)C(C(C)C)NC(=O)c3nc(sc3C)C(CC(=O)NC)NC(=O)c3csc-4n3)n2)=N1 (mixture of isomers) [Compound 8]
0.25 µg/mL | 1 µg/mL |  | 0.25 µg/mL | 0.06 µg/mL | 128 µg/mL | CNC(=O)CC1NC(=O)c2csc(n2)-c2ccc(-c3nc(C4=NC(C(=O)N5CCCC5C(=O)N(C)CCN(C)C)CO4)cs3)nc2-c2csc(n2)-c2csc(n2)C(C(O)c2ccccc2)NC(=O)CNC(=O)c2nc(sc2COC)C(C(C)C)NC(=O)c2nc1sc2C (mixture of isomers) [Compound 5]
1 µg/mL | 8 µg/mL | 16 µg/mL | 2 µg/mL | 0.06 µg/mL |  | CNC(=O)CC1NC(=O)c2csc(n2)-c2ccc(-c3nc(C4=NC(C(=O)N5CCCC5C(=O)N(C)CCN(C)CCN(C)C)CO4)cs3)nc2-c2csc(n2)-c2csc(n2)C(C(O)c2ccccc2)NC(=O)CNC(=O)c2nc(sc2COC)C(C(C)C)NC(=O)c2nc1sc2C (mixture of isomers) [Compound 15]

More lines, now with the values behind:

Structure (SMILES) | MIC of the compounds, Strept. pneumoniae L44 (Strept. pneumoniae L44) | MIC of the compounds, Streptococcus pyogenes L49 [1] | MIC of the compounds, Strept. agalactiae L310 (Strept. agalactiae L310) | MIC of the compounds, Strept. sanguis L1721 (Strept. sanguis L1721) | MIC of the compounds, Staphylococcus aureus L165 [2] | MIC of the compounds, Haemoph. influenzae ATCC 19418 L970 [3]
CNC(=O)CC1NC(=O)c2csc(n2)-c2ccc(-c3nc(C4=NC(C(=O)N5CCCC5C(=O)NCCN(C)C)CO4)cs3)nc2-c2csc(n2)-c2csc(n2)C(C(O)c2ccccc2)NC(=O)CNC(=O)c2nc(sc2COC)C(C(C)C)NC(=O)c2nc1sc2C (mixture of isomers) [Compound 7] | 0.13 µg/mL | 1 µg/mL | 4 µg/mL | 0.5 µg/mL | 0.06 µg/mL | 
CNC(=O)CC1NC(=O)c2csc(n2)-c2ccc(-c3nc(C4=NC(C(=O)N5CCCC5C(=O)N5CCN(CCN6CCOCC6)CC5)CO4)cs3)nc2-c2csc(n2)-c2csc(n2)C(C(O)c2ccccc2)NC(=O)CNC(=O)c2nc(sc2COC)C(C(C)C)NC(=O)c2nc1sc2C (mixture of isomers) [Compound 19] | 0.25 µg/mL | 0.5 µg/mL | 16 µg/mL | 2 µg/mL | 0.06 µg/mL | 
CNC(=O)CC1NC(=O)c2csc(n2)-c2ccc(-c3nc(C4=NC(C(=O)N5CCCC5C(=O)NC(C)C(=O)N(C)CCN(C)C)CO4)cs3)nc2-c2csc(n2)-c2csc(n2)C(C(O)c2ccccc2)NC(=O)CNC(=O)c2nc(sc2COC)C(C(C)C)NC(=O)c2nc1sc2C (mixture of isomers) [Compound 14] | 0.13 µg/mL | 2 µg/mL | 4 µg/mL | 0.25 µg/mL | 0.13 µg/mL | 
CCN(CC)CCN(CC)C(=O)C1CCCN1C(=O)C1COC(c2csc(-c3ccc4c(n3)-c3csc(n3)-c3csc(n3)C(C(O)c3ccccc3)NC(=O)CNC(=O)c3nc(sc3COC)C(C(C)C)NC(=O)c3nc(sc3C)C(CC(=O)NC)NC(=O)c3csc-4n3)n2)=N1 (mixture of isomers) [Compound 9] | 0.5 µg/mL | 8 µg/mL | 8 µg/mL | 2 µg/mL | 0.06 µg/mL | 
CNC(=O)CC1NC(=O)c2csc(n2)-c2ccc(-c3nc(C4=NC(C(=O)N5CCCC5C(=O)N5CCN(CCCN(C)C)CC5)CO4)cs3)nc2-c2csc(n2)-c2csc(n2)C(C(O)c2ccccc2)NC(=O)CNC(=O)c2nc(sc2COC)C(C(C)C)NC(=O)c2nc1sc2C (mixture of isomers) [Compound 16] | 0.5 µg/mL | 4 µg/mL | 8 µg/mL | 1 µg/mL | 0.13 µg/mL | 
CNC(=O)CC1NC(=O)c2csc(n2)-c2ccc(-c3nc(C4=NC(C(=O)N5CCCC5C(=O)N(C)CCN5CCN(C)CC5)CO4)cs3)nc2-c2csc(n2)-c2csc(n2)C(C(O)c2ccccc2)NC(=O)CNC(=O)c2nc(sc2COC)C(C(C)C)NC(=O)c2nc1sc2C (mixture of isomers) [Compound 17] | 0.5 µg/mL | 4 µg/mL | 8 µg/mL | 0.5 µg/mL | 0.06 µg/mL | 
CNC(=O)CC1NC(=O)c2csc(n2)-c2ccc(-c3nc(C4=NC(C(=O)N5CCCC5C(=O)NCCN(C(C)C)C(C)C)CO4)cs3)nc2-c2csc(n2)-c2csc(n2)C(C(O)c2ccccc2)NC(=O)CNC(=O)c2nc(sc2COC)C(C(C)C)NC(=O)c2nc1sc2C (mixture of isomers) [Compound 11] | 0.25 µg/mL | 4 µg/mL | 4 µg/mL | 0.5 µg/mL | 0.06 µg/mL | 
CNC(=O)CC1NC(=O)c2csc(n2)-c2ccc(-c3nc(C4=NC(C(=O)N5CCCC5C(=O)N(C)CCN5CCN(CCO)CC5)CO4)cs3)nc2-c2csc(n2)-c2csc(n2)C(C(O)c2ccccc2)NC(=O)CNC(=O)c2nc(sc2COC)C(C(C)C)NC(=O)c2nc1sc2C (mixture of isomers) [Compound 18] | 0.5 µg/mL | 8 µg/mL | 8 µg/mL | 2 µg/mL | 0.06 µg/mL | 
CNC(=O)CC1NC(=O)c2csc(n2)-c2ccc(-c3nc(C4=NC(C(=O)N5CCCC5C(=O)NCCCN(C)C)CO4)cs3)nc2-c2csc(n2)-c2csc(n2)C(C(O)c2ccccc2)NC(=O)CNC(=O)c2nc(sc2COC)C(C(C)C)NC(=O)c2nc1sc2C (mixture of isomers) [Compound 4] | 0.25 µg/mL | 4 µg/mL | 4 µg/mL | 0.5 µg/mL | 0.06 µg/mL | 
CNC(=O)CC1NC(=O)c2csc(n2)-c2ccc(-c3nc(C4=NC(C(=O)N5CCCC5C(=O)N5CCCC5CN(C)CCN(C)C)CO4)cs3)nc2-c2csc(n2)-c2csc(n2)C(C(O)c2ccccc2)NC(=O)CNC(=O)c2nc(sc2COC)C(C(C)C)NC(=O)c2nc1sc2C (mixture of isomers) [Compound 20] | 0.5 µg/mL | 4 µg/mL | 8 µg/mL | 1 µg/mL | 0.13 µg/mL | 

Source: patent US6143739A, “Basic proline-amide derivatives of GE 2270 and GE 2270-like antibiotics” (Biosearch Italia S.p.A., priority 1995, dated 2000)
